The values that follow come from PMC6588697, “Lugdunin amplifies innate immune responses in the skin in synergy with host- and microbiota-derived factors” (Nature Communications, 2019).

Format in all cases: cell-based, human
The test system of experiment [1] is HNEpCs. As to the kind of experiment: CXCL8 expression in HNEpCs (qRT-PCR). The note with it: 5 h, 100 ng/mL Pam2Cys or Pam3Cys, two technical replicates, sheet Supp Fig 1f. The protocol:
(§1) Quantitative reverse transcription-polymerase chain reaction (qRT-PCR) was performed in 10 µL reaction volume with SYBR^TM Green PCR Master Mix (Thermo Fisher) according to the manufacturer’s instructions using a LightCycler 96 (Roche Life Science). The initial denaturation step was at 95 °C for 5 min, followed by 40 cycles with 10 s each for the denaturation step at 95 °C, the annealing at individual temperature, and the elongation at 72 °C. Primer sequences and respective annealing temperatures are listed in Supplementary Table 1. […]
(§2) 31 g+h+i: HNEpCs (b), HTEpCs (c) or PBMCs (d) were treated with increasing
(§3) 32 concentrations of lugdunin (grey bars) or 100 ng/mL Pam2Cys or Pam3Cys (white
(§4) 33 bars) as positive controls for 5 hours and subsequently expression of CXCL8 was
(§5) 34 analyzed and normalized to actin. Black bar: medium control. Shown is one
(§6) 35 representative experiment of three independent experiments with two technical
(§7) 36 replicates +/-s.e.m. Significant differences to control treatments were analyzed by
(§8) 37 ordinary one-way ANOVA followed by Dunnett’s multiple comparisons test (*P<0.05; […]
(In general: In qPCR the cycle at which signal appears reflects the starting amount.)

Experiment [2] has as its system PHKs. As to the kind of experiment: CXCL8 expression in PHKs (qRT-PCR, normalized to actin). The note with it: PHKs, 5 h. The protocol: Fig. 1 Lugdunin sensitizes epithelial cells for innate immune defense. a Primary human keratinocytes (PHKs) were pretreated with S. epidermidis conditioned medium (CM), indicated lugdunin concentrations, or the combination of both for 20 h. Subsequently, cells were infected with S. aureus for 1.5 h followed by cell lysis and determination of colony-forming units (CFUs). Shown is one representative experiment of three independent experiments with six technical replicates ± s.e.m. n.s., not significant. b Dorsal skin of mice was pretreated with S. epidermidis CM, 1.5 µg lugdunin alone or in combination with S. epidermidis CM for 24 h. Subsequently, S. aureus CFUs were determined. Horizontal lines represent the mean of each group ± s.e.m. c PHKs were treated with 2 μM lugdunin or with S. epidermidis CM alone or in combination for 20 h and subsequently expression of indicated antimicrobial peptides (AMPs) (respective protein names in brackets) was analyzed and normalized to actin. Shown is one representative experiment of three independent experiments with two technical replicates ± s.e.m. d PHKs were treated with 2 µM lugdunin or 100 ng/mL Pam2Cys for 5 h and subsequently the concentration of indicated cytokines in the supernatant was analyzed by LEGENDplex^TM (BioLegend). Shown is one representative experiment of three independent experiments with two technical replicates ± s.e.m. e PHKs were treated with increasing concentrations of lugdunin or 100 ng/mL Pam2Cys or Pam3Cys for 5 h and subsequently expression of chemokine (C-X-C motif) ligand 8 (CXCL8) was analyzed and normalized to actin. Shown is one representative experiment of three independent experiments, each with two technical replicates ± s.e.m. f, g Indicated cells were treated with 2 µM lugdunin or 100 ng/mL Pam2Cys as a positive control for 5 h and subsequently the concentration of CXCL8 (f) and interleukin-1α (IL-1α) (g) in the supernatant was analyzed by LEGENDplex^TM (BioLegend) and enzyme-linked immunosorbent assay (ELISA) (R&D Systems). Shown is one representative experiment of three independent experiments with two technical replicates ± s.e.m. Significant differences to control treatments were analyzed by ordinary one-way analysis of variance (ANOVA) followed by Dunnett’s multiple comparisons test (*P < 0.05; **P < 0.01; ***P < 0.001; ****P < 0.0001). n.d. = not detected. Source data are provided as a Source Data file
Fig. 4 Lugdunin amplifies the commensal-induced chemokine (C-X-C motif) ligand (CXCL8) induction. a Primary human keratinocytes (PHKs) were either treated with 2 μM of human antimicrobial peptides (AMPs) (black bars) or lugdunin (blue bars), or 0.8 μM (pro)-gallidermin or nisin (black bars), or in combination with S. epidermidis conditioned medium (CM) (gray and red striped bars) for 5 h, and subsequently expression of CXCL8 was analyzed and normalized to actin. Shown is one representative experiment of three independent experiments with two technical replicates ± s.e.m. b PHKs were treated with 2 μM human AMPs, 2 μM lugdunin, 0.8 μM of the other bacteriocins (gray bars) or the correspondent peptide combinations (white bars), or 50 ng/mL Pam2Cys, 10 ng/mL IL-1α, or S. epidermidis CM as controls (black bars), for 5 h and subsequently expression of CXCL8 was analyzed and normalized to actin. Shown is one representative experiment of three independent experiments with two technical replicates ± s.e.m. Significant differences to control treatments were analyzed by ordinary one-way analysis of variance (ANOVA) followed by Dunnett’s multiple comparisons test (***P < 0.001; ****P < 0.0001). Source data are provided as a Source Data file
After 5 h or 20 h of peptide treatment, PHKs were washed once with PBS, followed by the addition of RNA lysis buffer directly into the well. Total RNA was extracted using the Nucleospin RNA Kit (Macherey-Nagel) according to the manufacturer’s protocol. […]

In experiment [3] the test system is PBMCs. Briefly: CXCL8 expression in PBMCs (qRT-PCR). As to conditions: 5 h, 100 ng/mL Pam2Cys or Pam3Cys, two technical replicates, sheet Supp Fig 1h. The protocol:
Quantitative reverse transcription-polymerase chain reaction (qRT-PCR) was performed in 10 µL reaction volume with SYBR^TM Green PCR Master Mix (Thermo Fisher) according to the manufacturer’s instructions using a LightCycler 96 (Roche Life Science). The initial denaturation step was at 95 °C for 5 min, followed by 40 cycles with 10 s each for the denaturation step at 95 °C, the annealing at individual temperature, and the elongation at 72 °C. Primer sequences and respective annealing temperatures are listed in Supplementary Table 1.
Human PBMCs were isolated from the peripheral blood of healthy donors upon obtaining informed consent by Ficoll-Histopaque (Biochrom) gradient centrifugation. Cells were washed once in PBS and adjusted to a cell number of 1 × 10^6 mL^−1 in RPMI-1640 medium (Gibco/Life Technologies) containing 10% FBS (Biochrom/Merck Millipore). […]
as §2, §3, §4, §5, §6, §7, §8

Experiment [4] concerns HTEpCs. As to the kind of experiment: CXCL8 expression in HTEpCs (qRT-PCR). As to conditions: 5 h, 100 ng/mL Pam2Cys or Pam3Cys, two technical replicates, sheet Supp Fig 1g. The protocol: as §1, §2, §3, §4, §5, §6, §7, §8

“And” between values parts separate entries of the source, which are not always exact repeats. Identical values can stand only once.

Turning to Pam3Cys [reference compound], the CXCL8 fold induction was 22.316 and 30.696 in experiment [1]; 2.838 and 2.819 in experiment [3]; 3.972 and 3.732 in experiment [4]. For the same molecule, in experiment [2] (100 ng/mL Pam2Cys or Pam3Cys, medium = 1, technical replicates, Fig 1e), the “CXCL8 expression normalized to actin” value was 1.261 and 1.177.

B1: IL-1: interleukin-1α, 10 ng/mL, control in Fig 4b (protein, UniProt P01583 113-271, looked up)
Interleukin-1 alpha: SAPFSFLSNVKYNFMRIIKYEFILNDALNQSIIRANDQYLTAAALHNLDEAVKFDMGAYKSSKDDAKITVILRISKTQLYVTAQDEDQPVLLKEMPEIPKTITGSETNLLFFWETHGTKNYFTSVAHPNLFIATKQDYWVCLAGGPPSITDFQILENQA
B1: the “CXCL8 expression normalized to actin” value in experiment [2] (2 µM human AMPs, 2 µM lugdunin, 0.8 µM other bacteriocins or their combinations, 50 ng/mL Pam2Cys, 10 ng/mL IL-1α, S. epidermidis CM, two technical replicates, Fig 4b) was 153.545 and 150.36.
